Columns and labels:
L1210 [1] = experiment: Compound was tested for the inhibition of the transport of methionine into L1210 cells at the 10 uM concentration after <20 min; type: functional; conditions: Mus musculus
L1210 [2] = experiment: Compound was tested for the inhibition of the transport of aminoisobutyric acid into L1210 cells at the 10 uM concentration after <20 min; type: functional; conditions: Mus musculus

Sequence	inhibition (L1210 [1]) [%]	inhibition (L1210 [2]) [%]
CISPLATIN	10	15
TRANSPLATIN	< 5	< 5

— ChEMBL document CHEMBL1123175, “Synthesis and biological activity of several amino nucleoside-platinum(II) complexes” (1986)
